Experimental findings from patent US20100120703A1, “COMPOSITIONS AND METHODS FOR TREATING CANCER” (priority 2007, published 2010) are described below.

Assay [1] relates to Sprague Dawley (SD) rats. As to the kind of experiment: Serum AST/ALT assay, promotion stage. Format: in vivo, rat. The conditions noted are these: promotion stage (FIG. 10), 15 mg/kg oral daily. The text has this: In the promotion stage experiment, rats in the negative control group received weekly intraperitoneal (i.p.) injection of DMSO for the first 2 weeks and then Corn Oil for the rest of the schedule. Rats in the positive control and SIN-treatment groups both received weekly intraperitoneal (i.p.) injection of the carcinogen DEN for the first 2 weeks and then promoter, Carbon Tetrachloride (CCl4) for the rest of the schedule. Two weeks of fasting were inserted between the initiator carcinogen treatment and the promoter CCl4 treatment. During the fasting period of 2 weeks, rats were fasted for 5 days, followed by a 2 day feeding, and another 5 days of fasting. Water was given ad libitum. Negative and positive control groups received oral treatment of water once a day after fasting. Sinigrin with dosage 15 mg/kg was administered orally to the treatment group daily for 28 weeks after fasting. […]
The serum AST activity assay was measured by a Stanbio AST (UV-Rate) kit. […] Absorbance was measured at OD 340 nm. After incubation for 1 minute, a reading was taken and the reading at this point was counted as time zero. Readings were then taken at 30 second interval for 3 minutes. The change of absorbance per minute was calculated and the AST activity was calculated by the formula
The ALT assay was measured by a Stanbio […]. […]

Assay [2] has as its system p53, Mdm2, p21, PCNA, Bax and Bcl-2. As to the kind of experiment: Gene expression assay (RT-PCR, Western blot) in rat liver, promotion stage. Format: in vivo. The procedure: Expression patterns, at both mRNA and protein levels, of selected genes related to apoptosis and tumors were examined to investigate the mechanism by which sinigrin prevent tumor occurrence.
RNA was extracted from 300 μg of rat liver and was measured as described in foregoing examples Three micrograms of total RNA, 1 μl of an oligo dT primer and certain volume of RNase-Free H2O were mixed into a total volume of 12 μl. The mixture was incubated at 70° C. for 10 minutes and immediately chilled on ice. Four microliters of 5× First Stand Buffer, 2 μl of 0.1M DTT, 1 μl of 10 mM dNTP mix, and 1 μl of SuperScript II were added to each tube and mixed. The tubes were incubated at 42° C. for 50 minutes followed by 70° C. for 15 minutes before chilling on ice. The cDNA was then ready for PCR amplification.
The PCR reactions were performed in a final volume of 20 μl in a Gene Amp® PCR system. The PCR reaction mix contained 1 μl of cDNA synthesized previously, 2 μl 10×PCR Buffer, 0.4 μl 10 mM dNTP mix, 1.2 μl 25 mM MgCl2, 1 μl 10 mM primer mix, 0.2 μl recombinant Taq polymerase, and 14.2 μl autoclaved ddH2O.
For synthesis of β-actin gene as the internal control and Mdm2 gene, the PCR mixture was incubated at 94° C. for 5 minutes followed by 30 cycles of amplification. Each cycle consisted of 45 seconds of denaturation at 94° C., 45 seconds of annealing at 55° C. and 30 seconds of extension at 72° C. After all cycles were completed, a final extension step at 72° C. for 10 minutes was performed. The PCR products were ready for gel electrophoresis.
For synthesis of p53, the number of cycle was enhanced to 35, the annealing temperature was enhanced to 58° C., and the extension time was extended to 1.5 minutes, respectively.
The intensity of the PCR products was analyzed by the software Image J. The band intensity of the β-actin gene was measured as an internal control. The ratio of the band intensities of the target gene to the β-actin gene was used to compare the mRNA level of each gene between different treatment groups.
Three hundred micrograms of each liver sample were homogenized in the Solution C at 1 g/ml using a glass homogenizer on ice. The homogenate was transferred to a microcentrifuge tube and centrifuged at 13,000 rpm for 20 minutes. The supernatant was collected and equal volume of 2× sample loading dye was added to each sample. The samples were stored at −20° C. The protein was used for immunodetection of the expression level of Bax, Bcl-2, PCNA and p21.
Three hundreds micrograms of each liver sample were homogenized in Solution A at 1 g/ml using the glass homogenizer on ice. The homogenate was transferred into a microcentrifuge tube and centrifuged at 3,000 rpm for 5 minutes to spin down the unbroken tissue. The supernatant was collected and incubated on ice for 5 minutes and then centrifuged at 5,000 rpm for 5 minutes. The supernatant was discarded and the pellet was lysed by 100 μl Solution B. The lysing process lasted for 20 minutes on ice. After incubation, the solution was centrifuged at 12,000 rpm for 15 seconds to spin down the cell debris. The supernatant was collected and equal volume of 2× sample loading dye was added to each sample. The samples were ready for immunodetection of the expression level of p53 and mdm2.
The Mini-PROTEAN II electrophoresis cell (Bio-Rad) was used for sodium dodecyl sulfate poly acrylamide gel electrophoreses (SDS-PAGE). The gel mold was assembled according to the protocol. About 3 ml water was poured into the set mold to test for leakage. After discarding the water, resolving gel solution was prepared according to the established protocol. A 10% acrylamide gel was used for the separation. The resolving gel was poured into the mold at a proper volume (about ⅔ full). After the gel solution was poured into the mold, a thin layer of distilled water was poured on the gel solution to ensure the surface of the gel was smooth. The gel was allowed to polymerize for 30 minutes. […]

Molecules are shown by their SMILES.

For the compound `C=CC/C(=N/OS(=O)(=O)[O-])S[C@@H]1OC(CO)[C@@H](O)C(O)C1O.[K+]` (some centres unmarked) [SIN, sinigrin], in assay [1], the “rat serum ALT level” value is listed as “levels similar to those in the negative control” and the “rat serum AST level” value is on record as “levels similar to those in the negative control”. In assay [2] (RT-PCR), the “Mdm2 mRNA expression” value was “decreased back to levels near the negative control” and the “p53 mRNA expression” value was “decreased back to levels near the negative control”. In addition, in assay [2] (Western blot), the “Bax protein expression (decreased in positive group)” value is reported as “reversed”, the “Bcl-2 protein expression (increased in positive group)” value is listed as “reversed”, the “Mdm2 protein expression (increase in positive control)” value is given as “partially reversed” and the “PCNA protein expression (increased in positive group)” value is recorded as “reversed”. Also, in assay [2] (Western blot), the p21 protein expression result was “much higher than that of the negative control and the positive control”; the “total p53 protein level” value is given as “significantly increased”; the “wild type p53 protein level” value is recorded as “restored its expression to a level even higher than the negative control”.
